According to patent publication US20080311233A1, “Naturally Occurring Phenolic Substances Useful as Pesticides” (priority 2004, published 2008):

How the values were obtained:
[1] = cited from earlier work
[2] = Solubility / miscibility in water and formulating agents; format: physicochemical

solubility in polyethylene glycol ([2]; polyethylene glycol): considerably soluble
solubility in tetra ethyl ortho silicate ([2]; tetra ethyl ortho silicate): considerably soluble
SMILES: COc1cc(C=O)ccc1O [Vanillin]
solubility in water ([1]; according to the Merck index): 1 gram in 100 ml water
solubility in alcohol ([1]; compared with water, Merck index): more soluble
